Like-named read-outs stand apart in the source and are kept apart here.

The test concerns the target T1, Chymase purified from human skin mast cells (Homo sapiens, UniProt P23946).
T1 construct: Chymase purified from human skin mast cells was obtained from Calbiochem; purchased Calbiochem (Merck Biosciences, San Diego, Calif., USA); host or cells: human skin mast cells (natural source)
T1 sequence (P23946 22-247): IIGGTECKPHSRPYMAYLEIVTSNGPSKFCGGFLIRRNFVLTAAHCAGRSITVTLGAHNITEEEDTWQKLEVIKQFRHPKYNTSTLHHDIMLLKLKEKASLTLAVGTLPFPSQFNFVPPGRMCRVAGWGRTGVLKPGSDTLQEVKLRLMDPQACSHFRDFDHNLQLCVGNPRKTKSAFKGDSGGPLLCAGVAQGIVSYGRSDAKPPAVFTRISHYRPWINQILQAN
The test can be described thus: chymase peptide substrate assay (AAPF-AMC fluorescence). The format is biochemical. Here is the method:
The peptide was synthesized with a purity of 95% from Bachem, Bubendorf, Switzerland). Chymase purified from human skin mast cells was obtained from Calbiochem (Merck Biosciences, San Diego, Calif., USA). The assay buffer was 0.15 M NaCl, 0.05M, Tris HCl, 0.05% CHAPS (3-[(3-Cholamidopropyl)-dimethylammonio]-1-propane sulphonate), 0.1 mg/ml Heparin (Heparin sodium, Sigma, porcine intestinal mucosa), 0.02 mM AAPF-substrate, 1 nM Chymase at pH 7.4. The assay was performed in 96-well plates (Packard Optiplate), with a 0.05 ml volume at room temperature. Chymase activity was indicated by the initial rate of increase in fluorescence at 340/440 nm (excitation/emission) from free 7-amino-4-methylcoumarin released from the substrate. Inhibition of the activity by inhibitory compounds was read after 30 min pre-incubation with the chymase at room temperature in assay buffer without AAPF-substrate. The assay was then started by addition of the indicated concentration of AAPF-substrate.

Where [1] appears, read: 0.02 mM AAPF-substrate, 1 nM Chymase, pH 7.4, room temperature, 30 min pre-incubation, read-out: IC50.

As for `Cc1c(S(=O)(=O)Nc2ccc(C3CCNCC3)cc2S(C)(=O)=O)sc2ccc(F)cc12` [Example 21, 5-Fluoro-3-methyl-benzo[b]thiophene-2-sulfonic acid(2-methanesulfonyl-4-piperidin-4-yl-phenyl)-amide], under setting [1], the half-inhibitory concentration (IC50) is 3 nM. The compound `Cc1c(S(=O)(=O)Nc2ccc(-c3ccncc3)cc2C(F)(F)F)sc2ccc(F)cc12` [Example 2, 5-Fluoro-3-methyl-benzo[b]thiophene-2-sulfonic acid(4-pyridin-4-yl-2-trifluoromethyl-phenyl)-amide] came in with an IC50 of 35 nM.

Turning to `CCc1cc(-c2ccncc2)ccc1NS(=O)(=O)c1sc2ccc(F)cc2c1C` [Example 16, 5-Fluoro-3-methyl-benzo[b]thiophene-2-sulfonic acid(2-ethyl-4-pyridin-4-yl-phenyl)-amide], the half-inhibitory concentration (IC50) under setting [1] amounted to 106 nM.

One may read the IC50 as the concentration that inhibits the measured activity by half.

These data come from patent publication US8158655B2, “Sulfonamide derivatives” (Hoffmann-La Roche Inc., priority 2007, dated 2012).
